Patent publication US7622488B2, “Use of a pyrazole derivative for preparing medicines useful for treating renal diseases” (sanofi-aventis, priority 2005, dated 2009)

Legend:
Zucker fa/fa obese rats = experiment: Long-term treatment (12 months) of Zucker fa/fa obese rats with established obesity; protection of renal function; format: in vivo; settings: for mortality: after 12 months, untreated obese rats 64%
Experimental: The Zucker obese rat strain fa/fa is characterized by hyperphagia, obesity, dyslipidemia aid type 2 diabetes resulting in the gradual development of a nephropathy.
A group of Zucker fa/fa obese rats that were not treated, but received the same amount of food as the group treated with 10 mg/kg/day per os, was also formed (pair-fed group).

obese patients = settings: clinical studies, cited from earlier work
[1] = Zucker fa/fa obese rats, 3 and 10 mg/kg/day per os for 12 months, vs vehicle
[2] = after 12 months of treatment, 3 and 10 mg/kg/day

Compound: Cc1c(C(=O)NN2CCCCC2)nn(-c2ccc(Cl)cc2Cl)c1-c1ccc(Cl)cc1 [rimonabant, N-piperidino-5-(4-chlorophenyl)-1-(2,4-dichlorophenyl)-4-methylpyrazole-3-carboxamide]
- mortality (Zucker fa/fa obese rats; 3 mg/kg/day per os, p<0.05): 28%
- mortality (Zucker fa/fa obese rats; 10 mg/kg/day per os, p<0.01): 20%
- survival of the Zucker fa/fa obese rats (Zucker fa/fa obese rats; 3 and 10 mg/kg/day per os): very significantly prolongs
- creatinine clearance (Zucker fa/fa obese rats; [1]): partially restored
- increase in plasma creatinine level (Zucker fa/fa obese rats; [1]): decreased in a dose-dependent manner
- increase in plasma urea level (Zucker fa/fa obese rats; [1]): decreased in a dose-dependent manner
- renal hypertrophy (Zucker fa/fa obese rats; Zucker fa/fa obese rats, 12 months treatment, vs vehicle): significantly reduced
- contractility (Zucker fa/fa obese rats; [2]): remain unchanged
- heart rate (Zucker fa/fa obese rats; [2]): remain unchanged
- left ventricular pressure (Zucker fa/fa obese rats; [2]): remain unchanged
- mean arterial pressure (Zucker fa/fa obese rats; [2]): remain unchanged
- protienuria (Zucker fa/fa obese rats; chronic treatment, 3 and 10 mg/kg/day per os): significantly delays
- body weight of obese patients (obese patients; obese patients): reduces
- food intake (obese patients): acts on food intake in quantitative and qualitative terms
